How the values were obtained:
Format in all cases: in vivo
Conditions in all cases: 250 g/ha, evaluated after 13 days
Setaria faberi (SETFA) [1] = test: Post-emergence Test, glasshouse, SETFA
Procedure: (§1) Seeds of a variety of test species are sown in standard soil in pots Amaranthus retoflexus (AMARE), Echinochloa crus-galli (ECHCG), Setaria faberi (SETFA)). After cultivation for one day (pre-emergence) or after 8 days cultivation (post-emergence) under controlled conditions in a glasshouse (at 24/16° C., day/night; 14 hours light; 65% humidity), the plants are sprayed with an aqueous spray solution derived from the formulation of the technical active ingredient in acetone/water (50:50) solution containing 0.5% Tween™ 20 (polyoxyethelyene sorbitan monolaurate, CAS RN 9005-64-5). Compounds are applied at 250 g/ha unless otherwise stated. The test plants are then grown in a glasshouse under controlled conditions in a glasshouse (at 24/16° C., day/night; 14 hours light; 65% humidity) and watered twice daily. After 13 days for pre- and post-emergence, the test is evaluated for the percentage damage caused to the plant. The biological activities are shown in the following table on a five-point scale (5=81-100%; 4=61-80%; 3=41-60%; 2=21-40%; 1=0-20%).

[2] = tested on: Echinochloa crus-galli (ECHCG); test: Post-emergence Test, glasshouse, ECHCG
Procedure: as §1

[3] = tested on: Echinochloa crus-galli (ECHCG); test: Pre-emergence Test, glasshouse, ECHCG
Procedure: as §1

Setaria faberi (SETFA) [4] = test: Pre-emergence Test, glasshouse, SETFA
Procedure: as §1

[5] = tested on: Amaranthus retoflexus (AMARE); test: Pre-emergence Test, glasshouse, AMARE
Procedure: as §1

IPOHE [6] = test: Pre-emergence Test, glasshouse, IPOHE
Procedure: as §1

[7] = tested on: Amaranthus retoflexus (AMARE); test: Post-emergence Test, glasshouse, AMARE
Procedure: as §1

IPOHE [8] = test: Post-emergence Test, glasshouse, IPOHE
Procedure: as §1

ABUTH [9] = test: Post-emergence Test, glasshouse, ABUTH
Procedure: as §1

ABUTH [10] = test: Pre-emergence Test, glasshouse, ABUTH
Procedure: as §1

SMILES | percentage damage caused to the plant, five-point scale, SETFA (Setaria faberi (SETFA) [1]) | percentage damage caused to the plant, five-point scale, ECHCG [2] | percentage damage caused to the plant, five-point scale, ECHCG [3] | percentage damage caused to the plant, five-point scale, SETFA (Setaria faberi (SETFA) [4]) | percentage damage caused to the plant, five-point scale, AMARE [5] | percentage damage caused to the plant, five-point scale, IPOHE (IPOHE [6]) | percentage damage caused to the plant, five-point scale, AMARE [7] | percentage damage caused to the plant, five-point scale, IPOHE (IPOHE [8]) | percentage damage caused to the plant, five-point scale, ABUTH (ABUTH [9]) | percentage damage caused to the plant, five-point scale, ABUTH (ABUTH [10])
FC(F)(F)CCCn1nc(Br)c2c(Br)ccc(Oc3ncc(Cl)cn3)c21 [Compound 1.015] | 2 (2=21-40%) | 2 (2=21-40%) | 1 (1=0-20%) | 1 (1=0-20%) | 2 (2=21-40%) | 1 (1=0-20%) | 4 (4=61-80%) | 1 (1=0-20%) | 4 (4=61-80%) | 1 (1=0-20%)
FC(F)(F)CCCn1nc(Br)c2cc(Br)cc(Oc3ncc(Cl)cn3)c21 [Compound 1.016] | 1 (1=0-20%) | 1 (1=0-20%) | 1 (1=0-20%) | 1 (1=0-20%) | 1 (1=0-20%) | 1 (1=0-20%) | 4 (4=61-80%) | 1 (1=0-20%) | 2 (2=21-40%) | 1 (1=0-20%)
N#Cc1cc(Cl)cnc1Oc1cc(Cl)cc2cnn(CCCC(F)(F)F)c12 [Compound 1.017] | 1 (1=0-20%) | 1 (1=0-20%) | 1 (1=0-20%) | 1 (1=0-20%) | 1 (1=0-20%) | 1 (1=0-20%) | 4 (4=61-80%) | 1 (1=0-20%) | 1 (1=0-20%) | 1 (1=0-20%)
FC(F)(F)CCCn1nc(Cl)c2c(Cl)c(Br)cc(Oc3ncc(Cl)cn3)c21 [Compound 1.019] | 2 (2=21-40%) | 2 (2=21-40%) | 1 (1=0-20%) | 1 (1=0-20%) | 1 (1=0-20%) | 1 (1=0-20%) | 4 (4=61-80%) | 1 (1=0-20%) | 1 (1=0-20%) | 1 (1=0-20%)
Fc1cc(Cl)cnc1Oc1ccc(Cl)c2cnn(CCCC(F)(F)F)c12 [Compound 1.031] | 1 (1=0-20%) | 1 (1=0-20%) | 1 (1=0-20%) | 1 (1=0-20%) | 1 (1=0-20%) | 1 (1=0-20%) | 4 (4=61-80%) | 1 (1=0-20%) | 1 (1=0-20%) | 1 (1=0-20%)
COc1nn(CCCC(F)(F)F)c2c(Oc3ncc(Cl)cn3)cccc12 [Compound 1.033, 7-(5-chloropyrimidin-2-yl)oxy-3-methoxy-1-(4,4,4-trifluorobutyl)indazole] | 1 (1=0-20%) | 1 (1=0-20%) | 1 (1=0-20%) | 1 (1=0-20%) | 2 (2=21-40%) | 1 (1=0-20%) | 1 (1=0-20%) | 1 (1=0-20%) | 1 (1=0-20%) | 1 (1=0-20%)
COCCn1nc(Cl)c2cccc(Oc3ncc(Cl)cn3)c21 [Compound 1.034] | 4 (4=61-80%) | 4 (4=61-80%) | 5 (5=81-100%) | 5 (5=81-100%) | 5 (5=81-100%) | 3 (3=41-60%) | 5 (5=81-100%) | 4 (4=61-80%) | 4 (4=61-80%) | 2 (2=21-40%)
FC(F)(F)CCn1nc(Cl)c2cccc(Oc3ncc(Cl)cn3)c21 [Compound 1.035] | 4 (4=61-80%) | 5 (5=81-100%) | 5 (5=81-100%) | 5 (5=81-100%) | 4 (4=61-80%) | 3 (3=41-60%) | 5 (5=81-100%) | 4 (4=61-80%) | 5 (5=81-100%) | 3 (3=41-60%)
FC(F)(F)CCCn1ncc2ccc(Br)c(Oc3ncc(Cl)cn3)c21 [Compound 1.036] | 1 (1=0-20%) | 1 (1=0-20%) | 1 (1=0-20%) | 1 (1=0-20%) | 1 (1=0-20%) | 1 (1=0-20%) | 1 (1=0-20%) | 1 (1=0-20%) | 1 (1=0-20%) | 1 (1=0-20%)
FC(F)(F)CCCn1nc(Cl)c2ccc(Br)c(Oc3ncc(Cl)cn3)c21 [Compound 1.037] | 1 (1=0-20%) | 1 (1=0-20%) | 1 (1=0-20%) | 1 (1=0-20%) | 1 (1=0-20%) | 1 (1=0-20%) | 2 (2=21-40%) | 1 (1=0-20%) | 1 (1=0-20%) | 1 (1=0-20%)

Source: patent publication US20230002357A1, “7-PYRIMIDINE-2-YL-OXY-INDAZOLE DERIVATIVES AND THEIR USE AS HERBICIDES” (SYNGENTA CROP PROTECTION AG, priority 2019, published 2023)
